The numbers were not newly measured in patent publication US20010007868A1, “COMPOSITIONS FOR INHIBITING INTESTINAL IRON ABSORPTION” (priority 1998, published 2001), which cites them from elsewhere.

The structures appear in SMILES notation. Read-outs that look alike come from different tables or passages of the source.

For data set [1] the following is noted: humans.
For data set [2] the following is noted: rats.
For data set [3], the system named is intestinal absorption of iron (IAI).
The conditions of data set [4]: fertile women, 50 mg/day over a 10 week period.

In the case of `O=C(O)CCCC[C@@H]1CCSS1` (racemic) [Lipoic acid], the “effect on insulin resistance” value in data set [1] and in data set [2] was “improve insulin resistance” in each case.

Regarding `Cc1c(O)c(=O)ccn1C` [Deferiprone], the “reduction of atherogenesis, in-vivo results” value is “not statistically significant”.

On to `O=C1O[C@H]([C@@H](O)CO)C(O)=C1O` [ascorbic acid], for which the “effect on IAI” value in data set [3] (with phytate-containing meal) is “enhances IAI and offsets the inhibitory effect of phytate”.

On to `O=C([O-])[O-].[Ca+2]` [calcium carbonate], for which, in data set [3] (doses of about 300 mg per meal, both heme and non-heme iron sources), the “decrease of IAI” value is given as 50-60%.

Consider `O=P([O-])([O-])O[C@H]1[C@H](OP(=O)([O-])O)[C@H](OP(=O)([O-])[O-])[C@H](OP(=O)([O-])O)[C@@H](OP(=O)([O-])[O-])[C@@H]1OP(=O)([O-])O.[Na+].[Na+].[Na+].[Na+].[Na+].[Na+].[Na+].[Na+].[Na+]` [sodium phytate], for which, in data set [3] (dose between 50-300 mg consumed at the time of a meal), the “reduction of IAI” value is recorded as “about 85%”.

On to `[Zn]` [zinc], for which the “reduction of serum ferritin levels” value in data set [4] was “about 20%”.
